Where a name gives a salt, the structure may show the parent alone. Read-outs that look alike come from different tables or passages of the source.
Key:
Assay type in all cases: biochemical
[1] = molecular target: T1, Caspase-4 (Homo sapiens, UniProt P49662); assay: Caspase-4 inhibitor screening assay (BioVision kit, LEVD-AFC); details: for inhibition at 10 µM: read-out: % Inhibition at 10 uM Casp4; for inhibition at 100 µM: read-out: % Inhibition at 100 uM Casp4; for IC50: read-out: IC50 Casp4
T1 construct: mixing the compounds with the respective active caspases; purchased BioVision K154-100
T1 sequence (P49662 81-270 limits assumed): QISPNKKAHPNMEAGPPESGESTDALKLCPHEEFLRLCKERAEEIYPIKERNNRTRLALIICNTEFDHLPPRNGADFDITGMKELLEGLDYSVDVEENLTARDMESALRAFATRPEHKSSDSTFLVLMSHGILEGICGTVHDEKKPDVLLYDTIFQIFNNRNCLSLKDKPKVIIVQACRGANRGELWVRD
T1 sequence (P49662 290-377 limits assumed): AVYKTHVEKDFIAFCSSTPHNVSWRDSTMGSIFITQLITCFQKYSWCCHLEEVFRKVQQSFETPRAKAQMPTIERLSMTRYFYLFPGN
Procedure: (§1) The efficacy of an array of compounds as an inhibitor of the activity of Caspases 1 through 10 were assessed by using the respective Caspase Inhibitor Drug Screening Kits (Caspase-1 Catalog #: K151-100, Caspase-2 Catalog #: K152-100, Caspase-3 Catalog #: K153-100, Caspase-4 Catalog #: K154-100, Caspase-5 Catalog #: K155-100, Caspase-6 Catalog #: K156-100, Caspase-7 Catalog #: K157-100, Caspase-8 Catalog #: K158-100, Caspase-9 Catalog #: K159-100, Caspase-10 Catalog #: K160-100, BioVision) following the instructions of the manufacturer. […] Active caspases cleaved their respective synthetic substrates to release free AFC, which was then quantified by fluorometry.
(§2) Briefly, the compounds were first tested at 2 concentrations (10 uM and 100 uM final) to determine if there is a hit. […] Each condition was tested in duplicates. […] For some samples, a smaller range of concentrations was tested depending on the % Inhibition results at 10 uM and 100 uM. Results were summarized in Tables 2, 3, and 4 herein after. Table 2 represents the IC50 values (uM) of the test compounds as inhibitors of the activity of the various caspases.
(§3) (*) RFU (no inhibitor control)—RFU (compound at a specific concentration)
(§4) RFU (no inhibitor control)

[2] = molecular target: T2, Caspase-10 (Homo sapiens, UniProt Q92851); assay: Caspase-10 inhibitor screening assay (BioVision kit, AEVD-AFC); details: for inhibition at 10 µM: read-out: % Inhibition at 10 uM Casp10; for inhibition at 100 µM: read-out: % Inhibition at 100 uM Casp10
T2 construct: mixing the compounds with the respective active caspases; purchased BioVision K160-100
T2 sequence (Q92851 220-415 limits assumed): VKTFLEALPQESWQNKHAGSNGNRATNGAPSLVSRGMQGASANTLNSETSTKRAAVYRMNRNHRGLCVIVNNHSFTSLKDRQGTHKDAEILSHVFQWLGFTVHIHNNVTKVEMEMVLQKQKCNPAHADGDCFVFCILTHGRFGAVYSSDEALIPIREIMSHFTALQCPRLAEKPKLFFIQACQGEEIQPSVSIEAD
T2 sequence (Q92851 416-521 limits assumed): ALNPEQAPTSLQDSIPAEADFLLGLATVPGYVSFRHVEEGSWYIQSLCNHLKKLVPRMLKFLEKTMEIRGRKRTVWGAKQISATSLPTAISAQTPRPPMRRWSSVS
Procedure: as §1, §2, §3, §4

[3] = molecular target: T3, Caspase-7 (Homo sapiens, UniProt P55210); assay: Caspase-7 inhibitor screening assay (BioVision kit, DEVD-AFC); details: for inhibition at 10 µM: read-out: % Inhibition at 10 uM Casp7; for inhibition at 100 µM: read-out: % Inhibition at 100 uM Casp7
T3 construct: mixing the compounds with the respective active caspases; purchased BioVision K157-100
T3 sequence (P55210 24-198 limits assumed): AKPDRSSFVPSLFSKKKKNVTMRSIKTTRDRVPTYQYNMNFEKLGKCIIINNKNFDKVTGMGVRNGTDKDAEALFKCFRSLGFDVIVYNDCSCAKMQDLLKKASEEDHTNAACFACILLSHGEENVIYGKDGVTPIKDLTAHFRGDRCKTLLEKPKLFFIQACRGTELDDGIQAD
T3 sequence (P55210 207-303 limits assumed): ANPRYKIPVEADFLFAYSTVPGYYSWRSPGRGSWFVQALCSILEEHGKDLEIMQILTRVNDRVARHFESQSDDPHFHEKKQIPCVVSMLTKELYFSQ
Procedure: as §1, §2, §3, §4

[4] = molecular target: T4, Caspase-8 (Homo sapiens, UniProt Q14790); assay: Caspase-8 inhibitor screening assay (BioVision kit, IETD-AFC); details: for inhibition at 10 µM: read-out: % Inhibition at 10 uM Casp8; for inhibition at 100 µM: read-out: % Inhibition at 100 uM Casp8
T4 construct: mixing the compounds with the respective active caspases; purchased BioVision K158-100
Procedure: as §1, §2, §3, §4

[5] = molecular target: T5, Caspase-2 (Homo sapiens, UniProt P42575); assay: Caspase-2 inhibitor screening assay (BioVision kit, VDVAD-AFC); details: for inhibition at 10 µM: read-out: % Inhibition at 10 uM Casp2; for inhibition at 100 µM: read-out: % Inhibition at 100 uM Casp2; for IC50: read-out: IC50 Casp2
T5 construct: mixing the compounds with the respective active caspases; purchased BioVision K152-100
T5 sequence (P42575 170-325 limits assumed): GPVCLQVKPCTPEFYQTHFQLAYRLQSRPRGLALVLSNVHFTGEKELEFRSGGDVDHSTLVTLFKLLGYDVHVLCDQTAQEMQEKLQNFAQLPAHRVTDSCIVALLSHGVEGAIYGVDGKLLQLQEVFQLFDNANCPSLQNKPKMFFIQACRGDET
T5 sequence (P42575 334-452 limits assumed): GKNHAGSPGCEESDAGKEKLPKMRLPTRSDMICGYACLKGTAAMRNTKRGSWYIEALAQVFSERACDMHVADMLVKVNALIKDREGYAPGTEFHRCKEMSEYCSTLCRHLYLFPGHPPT
Procedure: as §1, §2, §3, §4

[6] = molecular target: T6, Caspase-3 (Homo sapiens, UniProt P42574); assay: Caspase-3 inhibitor screening assay (BioVision kit, DEVD-AFC); details: for inhibition at 10 µM: read-out: % Inhibition at 10 uM Casp3; for inhibition at 100 µM: read-out: % Inhibition at 100 uM Casp3
T6 construct: mixing the compounds with the respective active caspases; purchased BioVision K153-100
T6 sequence (P42574 29-175 limits assumed): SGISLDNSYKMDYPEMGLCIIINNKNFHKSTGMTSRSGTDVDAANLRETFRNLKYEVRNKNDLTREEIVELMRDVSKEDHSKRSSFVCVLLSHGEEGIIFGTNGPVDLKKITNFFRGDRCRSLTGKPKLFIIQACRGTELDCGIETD
T6 sequence (P42574 176-277 limits assumed): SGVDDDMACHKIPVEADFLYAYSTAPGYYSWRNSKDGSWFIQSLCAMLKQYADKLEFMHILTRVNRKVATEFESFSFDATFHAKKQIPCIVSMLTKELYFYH
Procedure: as §1, §2, §3, §4

[7] = read-out: potency (IC50) against caspase-10
[8] = read-out: potency (IC50) against caspase-7
[9] = read-out: potency (IC50) against caspase-3

T4 sequence (Q14790 217-374 limits assumed): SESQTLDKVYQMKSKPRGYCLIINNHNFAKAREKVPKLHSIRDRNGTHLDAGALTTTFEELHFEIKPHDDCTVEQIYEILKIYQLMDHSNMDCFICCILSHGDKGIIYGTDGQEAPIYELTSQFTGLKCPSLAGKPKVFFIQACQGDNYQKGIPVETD
T4 sequence (Q14790 385-479 limits assumed): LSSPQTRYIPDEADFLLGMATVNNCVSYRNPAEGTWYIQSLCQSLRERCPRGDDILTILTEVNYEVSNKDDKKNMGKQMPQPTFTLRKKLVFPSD

Row | SMILES | inhibition at 10 µM [1] [%] | inhibition at 100 µM [1] [%] | IC50 [1] [µM] | inhibition at 10 µM [2] [%] | inhibition at 100 µM [2] [%] | IC50 ([2]; read-out: IC50 Casp10) [nM] | inhibition at 10 µM [3] [%] | inhibition at 100 µM [3] [%] | IC50 ([3]; read-out: IC50 Casp7) [nM] | inhibition at 10 µM [4] [%] | inhibition at 100 µM [4] [%] | IC50 ([4]; read-out: IC50 Casp8) [µM] | inhibition at 10 µM [5] [%] | inhibition at 100 µM [5] [%] | inhibition at 10 µM [6] [%] | inhibition at 100 µM [6] [%] | IC50 ([6]; read-out: IC50 Casp3) [nM] | IC50 [5] [µM] | further results
1 | CCOC(=O)/C=C/[C@H](CC(=O)O)NC(=O)[C@@H](NC(=O)[C@@H](NC(=O)[C@H](CC(=O)O)NC(=O)OCc1ccccc1)c1ccccc1)C(C)C [Compound 105, Z-Asp-Phg-Val-Asp Ethyl Vinyl Ester] | 100 | 98 | 0.51 | 96 | 99 | 590 | 99 | 99 | 150 | 77 | 79 | 2.62 | 0 | 17 | 99 | 100 | 30 |  | IC50 [2, 7]: 592 nM; IC50 [3, 8]: 145 nM; IC50 ([4]; read-out: potency (IC50) against caspase-8): 2.62 µM; IC50 [6, 9]: 27 nM
2 | CC(C)[C@H](NC(=O)c1ccc2ccccc2n1)C(=O)N[C@H](/C=C/S(C)(=O)=O)CC(=O)O [Compound 16, 2-Quinoline carbonyl-Val-Asp methyl vinyl sulfone] | 0 | 0 | > 100 | 26 | 35 | > 100000 | 3 | 19 | > 100000 | 5 | 14 | > 100 | 1 | 3 | 5 | 30 | > 100000 | > 100 | 
3 | CCOC(=O)/C=C/[C@@H](N)CC(=O)O [Compound 44, Asp ethyl vinyl ester tosyl salt] | 0 | 0 | > 100 | 4 | 15 | > 100000 | 0 | 0 | > 100000 | 0 | 7 | > 100 | 0 | 3 | 0 | 0 | > 100000 | > 100 | 
4 | CC(C)(C)[C@H](NC(=O)[C@H](CC(=O)O)NC(=O)OCc1ccccc1)C(=O)N1CCCC1C(=O)N[C@H](/C=C/S(C)(=O)=O)CC(=O)O (stereo in doubt) [Compound 26, Z-Asp-t-Leu-Pro-Asp-methyl vinyl sulfone] | 88 | 100 | 3.27 | 99 | 100 | 160 | 99 | 100 | 380 | 82 | 99 | 2.23 | 70 | 96 | 98 | 100 | 120 | 4.36 | IC50 [2, 7]: 161 nM; IC50 [3, 8]: 378 nM; IC50 [6, 9]: 123 nM
5 | CC(C)(C)[C@@H](NC(=O)[C@H](CC(=O)O)NC(=O)OCc1ccccc1)C(=O)N1CC[C@@H]1C(=O)N[C@H](/C=C/S(C)(=O)=O)CC(=O)O [Compound 32, Z-Asp-t-Leu-(Azetidine-2-carbonyl)-Asp-methyl vinyl sulfone] | 76 | 100 | 5.63 | 97 | 100 | 420 | 97 | 100 | 550 | 69 | 98 | 4.08 | 43 | 86 | 96 | 100 | 280 | 13.1 | potency against caspase-3 relative to compound 26, in words ([6]; replacement of Pro at P2 of compound 26): did not affect the potency against caspase-3

More lines, main results first:

Row | inhibition at 10 µM [1] [%] | inhibition at 100 µM [1] [%] | IC50 [1] [µM] | inhibition at 10 µM [2] [%] | inhibition at 100 µM [2] [%] | IC50 ([2]; read-out: IC50 Casp10) [nM] | inhibition at 10 µM [3] [%] | inhibition at 100 µM [3] [%] | IC50 ([3]; read-out: IC50 Casp7) [nM] | inhibition at 10 µM [4] [%] | inhibition at 100 µM [4] [%] | IC50 ([4]; read-out: IC50 Casp8) [µM] | inhibition at 10 µM [5] [%] | inhibition at 100 µM [5] [%] | inhibition at 10 µM [6] [%] | inhibition at 100 µM [6] [%] | IC50 ([6]; read-out: IC50 Casp3) [nM] | IC50 [5] [µM] | SMILES | further results
6 | 0 | 0 | > 100 | 2 | 0 | > 100000 | 9 | 76 | 49900 | 9 | 10 | > 100 | 0 | 3 | 39 | 88 | 15200 | > 100 | CC(C)[C@H](NC(=O)[C@@H](NC(=O)[C@H](CC(=O)O)NC(=O)OCc1ccccc1)c1ccccc1)C(=O)N[C@H](/C=C/S(C)(=O)=O)CCC(=O)O [Compound 84, Z-Asp-Phg-Val-Glu methyl vinyl sulfone] | 
7 | 57 | 99 | 9.02 | 31 | 98 | 18600 | 95 | 99 | 850 | 0 | 33 | > 100 | 0 | 19 | 98 | 100 | 90 | > 100 | CC(C)[C@H](NC(=O)[C@H](Cc1cn(C)c2ccccc12)NC(=O)[C@H](CC(=O)O)NC(=O)OCc1ccccc1)C(=O)N[C@H](/C=C/S(C)(=O)=O)CC(=O)O [Compound 36, Z-Asp-Trp(N-Me)-Val-Asp-methyl vinyl sulfone] | 

Source: patent publication US10975119B2, “Selective cysteine protease inhibitors and uses thereof” (Genesis Technologies Limited, priority 2011, dated 2021)
